Read-outs that look alike come from different tables or passages of the source. Starred links: 1 amine or outer side, 2 acyl side, 3 side chain; linkers in the order of their positions; H or OH if unused. Non-standard residues stand in square brackets, D forms with d. Residues, ends and D or L forms follow the SMILES beside them. azaPhe = O=C(N(Cc1ccccc1)N[*:1])[*:2]; X2 = O=C(N(CCc1ccccc1)N[*:1])[*:2]; azaLeu = CC(C)CN(N[*:1])C(=O)[*:2]; X1 = O=C(N(CC1CCCCC1)N[*:1])[*:2]; azaPro = O=C(N1CCCN1[*:1])[*:2]
Key:
CD36 = CD36 (Rattus norvegicus (Rat), UniProt Q07969); experiment: CD36 receptor covalent photolabelling binding assay, competition with [125I]Tyr-Bpa-Ala-hexarelin on rat cardiac membranes; conditions: for binding activity/affinity at CD36 in words: compared with parent peptide GHRP-6 or hexarelin
Chain of CD36 (Q07969 whole entry): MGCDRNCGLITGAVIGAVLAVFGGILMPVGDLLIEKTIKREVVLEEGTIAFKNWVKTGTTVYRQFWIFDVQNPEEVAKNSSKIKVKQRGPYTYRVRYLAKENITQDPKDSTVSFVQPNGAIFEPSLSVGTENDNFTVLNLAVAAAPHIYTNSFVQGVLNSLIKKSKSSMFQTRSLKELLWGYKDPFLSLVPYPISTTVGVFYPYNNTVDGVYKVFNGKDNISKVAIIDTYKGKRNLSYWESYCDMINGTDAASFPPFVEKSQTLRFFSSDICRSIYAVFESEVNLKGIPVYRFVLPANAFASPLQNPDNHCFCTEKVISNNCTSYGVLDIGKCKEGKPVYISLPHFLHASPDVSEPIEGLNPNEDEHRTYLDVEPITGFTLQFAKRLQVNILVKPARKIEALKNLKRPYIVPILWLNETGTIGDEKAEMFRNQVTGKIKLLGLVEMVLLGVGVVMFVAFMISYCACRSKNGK
Protocol: The hearts from Sprague Dawley rats (300 g-325 g) from Charles River, used as a source of cardiac membranes, were prepared as follows: the heart was washed with ice-cold saline, and fatty and connective tissue was removed. The tissue was cut into small pieces with scissors and placed in a Sorvall centrifuge tube containing 5 ml/g of fresh tissue of Buffer A (10 mM NaHCO3, 5 mM NaN3, 10 μM Pefabloc, 0.1 μM Aprotinin, 1 μM Pepstatin A, 1 μM Leupeptin, pH 7.0). The suspension was homogenized with a Polytron at low speed, 3×15 sec. The homogenate was centrifuged at 8 700×g for 20 min and the supernatant was put on ice. The pellet was resuspended and homogenized with a Glass-teflon Potter by 5 strokes. The homogenate was centrifuged at 8 700×g for 10 min and this supernatant was combined with the first supernatant. The supernatant fluid was centrifuged at 35 000×g for 20 min, yielding a second pellet fraction that was suspended thoroughly in a glass homogenizer with a Teflon pestle in 20 ml/g of fresh tissue of Buffer B (20 mM Tris-maleate, 0.6M KCl, pH 6.8). The resulting suspension was centrifuged again at 35 000×g for 60 min. The third pellet fraction was resuspended thoroughly in a glass homogenizer with a Teflon pestle in 20 ml/g of fresh tissue of Buffer C (10 mM Tris/HCl buffer pH 7.4) followed with another centrifugation at 35 000×g for 60 min. The harvested precipitate was then suspended in a small volume (1-2 ml/g of fresh tissue) of 50 mM Tris/HCl buffer pH 7.4) containing 2 mM EGTA. The resulting membrane preparation was frozen at −80° C. Protein concentration was determined with bicinchoninic acid (BCA) method, using BSA as standard.
The iodination procedure was performed in the darkness. […] The reaction was started by adding 5 ul (3 nmol) of H2O2. The incubation was carried out at 22° C. for 5 min. The addition of H2O2 was repeated twice with 5 min incubation each time. The reaction was stopped with the addition of 1.4 ml of 0.1% TFA. The iodinated peptide was purified on a reverse-phase Vydac C18 column with a 60 min linear gradient (1 ml/min) from 20% to 50% acetonitrile (90%) in 0.1% TFA (10%).
Nonspecific binding was defined as binding not displaced by 50 μM corresponding peptide. All peptide containing solutions were diluted in Buffer B. Buffer A and B were degassed under vacuum, and used in capped tubes in order to minimize lipid peroxydation. Before the incubation period, all tubes were put under a low flow of nitrogen. All material was kept on ice and the binding assay was performed in darkness. After an incubation period of 60 min at 22° C. […] After centrifugation at 12 000×g for 15 minutes, the pellets were resuspended in 150 μl of sample buffer (62 mM Tris-HCl, pH 6.8, 2% SDS, 10% glycerol, 15% 2-mercapto-ethanol, and 0.05% bromophenol blue), and boiled for 5 min prior to being subjected to electrophoresis. Proteins (200 μg/100 μl) were separated on 7.5% SDS-PAGE (45 V overnight). The gels resulting from SDS/PAGE were fixed, colored in Coomassie Brilliant Blue R-250, dried, exposed to a storage phosphor intensifying screen (Amersham Biosciences), and analysed by using a Typhoon PhosphorImager (Amersham Biosciences) and ImageQuant 5.0 software to establish competition curves. Protein bands were quantified by densitometry. The covalent binding signal of 87 kDa was analyzed by densitometry using Typhoon Phospholmager™ (Typhoon, Amersham Biosciences) and ImageQuant 5.0® software to set competition curves.
Specific binding activities were defined as the ratio of the density of the protein band to that of a non-specific band. Results are expressed as the percentage of the density of the […] to that of the total binding band.

human GHS-R1a = human GHS-R1a (Homo sapiens (Human), UniProt Q92847); experiment: GHS-R1a binding assay, competition with 125I-ghrelin on membranes of LLC-PK1 cells expressing human GHS-R1a; conditions: for binding affinity for GHS-R1a receptor in words: compared with GHRP-6
Chain of human GHS-R1a (Q92847 whole entry): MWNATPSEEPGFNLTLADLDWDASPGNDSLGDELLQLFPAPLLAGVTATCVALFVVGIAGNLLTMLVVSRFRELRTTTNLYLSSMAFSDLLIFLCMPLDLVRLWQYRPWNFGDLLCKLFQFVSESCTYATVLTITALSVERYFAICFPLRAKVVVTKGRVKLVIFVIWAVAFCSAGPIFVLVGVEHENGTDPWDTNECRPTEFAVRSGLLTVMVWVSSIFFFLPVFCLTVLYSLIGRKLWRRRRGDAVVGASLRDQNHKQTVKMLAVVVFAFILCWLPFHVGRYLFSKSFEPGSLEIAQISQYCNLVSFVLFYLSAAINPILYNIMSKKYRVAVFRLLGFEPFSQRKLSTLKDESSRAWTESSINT
Protocol: Rat ghrelin was radio iodinated with Na^125I using the lodo-Beads iodination reagent (Pierce #28665). Briefly, an lodo-bead was incubated with 2 mCi of Na^125I (Amersham) in 100 μL of 50 mM sodium phosphate buffer, pH 7.0 for 5 min at 22° C. The reaction was started by adding 20 nmol of the peptide (1 mM in 0.1 M acetic acid). The tube was incubated for 10 min at 22° C. The iodination was terminated by adding 1 mL of 0.1% TFA. The mono-iodinated peptide was purified by reverse-phase HPLC using a Vydac C18 ([…]) column (30 cm×0.39 cm) in combination with a binary elution system of (A) 0.1% TFA in H2O and (B) 0.1% TFA, 10% H2O, 90% acetonitrile. Fractions of 0.5 mL were collected and analyzed by its radioactive content.
Cells (1.4×10^6) were plated in 100 mm plates and transfected 24 h later with pCDNA3.1-hGHS-R1a (UMR cDNA Resource Center #GHSR0A0000) following the CaHPO4 precipitation method. Briefly, 40 μg of plasmid DNA was diluted in 500 μL of sterile H2O and added to an equal volume of a 4× CaCl2, pH 7.9 solution (2 mM Tris-HCl, 0.2 mM EDTA, 500 mM CaCl2). The mixture was then added slowly with air bubbles to 1 mL of 2× Hepes-buffered saline, pH 7.1 (50 mM Hepes, 280 mM NaCl, 1.5 mM Na2HPO4). After 30 min at room temperature, 1 mL was distributed evenly over the cells and let overnight. The medium was changed the next morning and the membrane preparation was made two days later.
Cells were washed twice with PBS and once with ice-cold homogenization buffer (50 mM Tris-HCl, pH 7.3, 5 mM MgCl2, 2.5 mM EDTA, 30 μg/ml bacitracin). Cells were scraped and harvested in 1.5 mL tubes. Cells were then lysed by temperature shock with two freeze/thaw cycles in liquid nitrogen. The tubes were centrifuged at 14000 g for 20 min. Pellets were resuspended in homogenization buffer and stored at −80° C. until used. Total protein concentrations were determined with the BCA protein assay kit (Pierce).
Competition experiments were performed by incubating 50 μg of LLC-PK1 membranes expressing human GHS-R1a with 15 fmol of ^125I-Ghrelin and increasing concentrations of unlabeled ghrelin or with increasing concentrations of azapeptides derivatives in 0.5 mL of binding buffer. Bound radiolabelled ligand was separated from free by filtration on Whatman GF/C filters pretreated with a 1% polyethylenimine solution. Filters were washed with 2×3 mL of washing buffer (50 mM Tris-HCl, pH 7.3, 10 mM MgCl2, 2.5 mM EDTA, 0.015% Triton X-100). Filters were counted in a LKB gamma counter. Curves were analyzed using Prism software (GraphPad Software Inc).

[1] = Table 6, read-out: IC50 Binding CD36
[2] = Table 5, read-out: IC50 Binding GHS-R1a
[3] = Table 3, rat cardiac membranes, [125I]Tyr-Bpa-Ala-hexarelin as radioligand, read-out: IC50, binding affinity of aza peptide derivatives towards CD36
[4] = Table 4, LLCPK-1 membranes overexpressing GHS-R1a, radioiodinated (1-28) rat ghrelin as tracer, read-out: EC50 (text: IC50 values from competition curves in GHS-R1a radioreceptor assay)

Row | SMILES | IC50 (CD36; [1]) [µM] | IC50 (human GHS-R1a; [2]) [µM] | IC50 (CD36; [3]) [µM] | IC50 (human GHS-R1a; [4]) [µM] | binding activity/affinity at CD36 in words (CD36) | other results
1 | CC(C)CN(NC(=O)[C@@H](Cc1c[nH]c2ccccc12)NC(=O)[C@H](C)N)C(=O)N[C@@H](Cc1c[nH]c2ccccc12)C(=O)N[C@H](Cc1ccccc1)C(=O)N[C@@H](CCCCN)C(N)=O [CP-2B (v), Ala-D-Trp-azaLeu-Trp-D-Phe-Lys-NH2] (H-A[dW][azaLeu]W[dF]K-NH2) | 3.68 | – | – | – | retained significant activity similar to the parent peptide | binding activity/affinity at CD36 in words (CD36; listed as CP-2B(v)): without major change; binding affinity for GHS-R1a receptor in words (human GHS-R1a): decreased drastically
2 | C[C@H](NC(=O)[C@@H](Cc1c[nH]c2ccccc12)NC(=O)[C@@H](N)Cc1cnc[nH]1)C(=O)N[C@@H](Cc1c[nH]c2ccccc12)C(=O)N1CCCN1C(=O)N[C@@H](CCCCN)C(N)=O [CP-AP-2, His-D-Trp-Ala-Trp-AzaPro-Lys-NH2] (H-H[dW]AW[azaPro]K-NH2) | > 10 | > 10 | – | – | – | –
3 | C[C@H](NC(=O)[C@@H](Cc1c[nH]c2ccccc12)NC(=O)[C@@H](N)Cc1cnc[nH]1)C(=O)N1CCCN1C(=O)N[C@H](Cc1ccccc1)C(=O)N[C@@H](CCCCN)C(N)=O [CP-AP-3, His-D-Trp-Ala-azaPro-D-Phe-Lys-NH2] (H-H[dW]A[azaPro][dF]K-NH2) | > 10 | > 10 | – | – | – | –
4 | C[C@H](NC(=O)[C@@H](Cc1c[nH]c2ccccc12)NC(=O)[C@@H](N)Cc1cnc[nH]1)C(=O)NN(Cc1ccccc1)C(=O)N[C@H](Cc1ccccc1)C(=O)N[C@@H](CCCCN)C(N)=O [DBG253-1, His-D-Trp-Ala-azaPhe-D-Phe-Lys-NH2] (H-H[dW]A[azaPhe][dF]K-NH2) | – | – | 1.34 | 2.77 | maintaining the binding activity | binding affinity for GHS-R1a receptor in words (human GHS-R1a): reducing the binding affinity
5 | CC(C)CN(NC(=O)[C@H](C)NC(=O)[C@@H](Cc1c[nH]c2ccccc12)NC(=O)[C@@H](N)Cc1cnc[nH]1)C(=O)N[C@H](Cc1ccccc1)C(=O)N[C@@H](CCCCN)C(N)=O [DBG253-2, His-D-Trp-Ala-azaLeu-D-Phe-Lys-NH2] (H-H[dW]A[azaLeu][dF]K-NH2) | – | – | 2890 | 19.5 | – | –
6 | C[C@H](NC(=O)[C@@H](Cc1c[nH]c2ccccc12)NC(=O)[C@@H](N)Cc1cnc[nH]1)C(=O)NN(CC1CCCCC1)C(=O)N[C@H](Cc1ccccc1)C(=O)N[C@@H](CCCCN)C(N)=O [DBG253-4, His-D-Trp-Ala-azaCha-D-Phe-Lys-NH2] (H-H[dW]A[X1][dF]K-NH2) | – | – | 2100 | 4.28 | – | –
7 | C[C@H](NC(=O)[C@@H](Cc1c[nH]c2ccccc12)NC(=O)[C@@H](N)Cc1cnc[nH]1)C(=O)N[C@H](Cc1ccc(O)cc1)C(=O)N[C@H](Cc1ccccc1)C(=O)N[C@@H](CCCCN)C(N)=O [DBG253-8, His-D-Trp-Ala-D-Tyr-D-Phe-Lys-NH2] (H-H[dW]A[dY][dF]K-NH2) | – | – | 12 | 3.25 | – | –
8 | C[C@H](NC(=O)N(Cc1ccccc1)NC(=O)[C@@H](N)Cc1cnc[nH]1)C(=O)N[C@@H](Cc1c[nH]c2ccccc12)C(=O)N[C@H](Cc1ccccc1)C(=O)N[C@@H](CCCCN)C(N)=O [DBG253-9, His-azaPhe-Ala-Trp-D-Phe-Lys-NH2] (H-H[azaPhe]AW[dF]K-NH2) | – | – | 72.4 | 16.1 | – | –
9 | C[C@H](NC(=O)N(CC1CCCCC1)NC(=O)[C@@H](N)Cc1cnc[nH]1)C(=O)N[C@@H](Cc1c[nH]c2ccccc12)C(=O)N[C@H](Cc1ccccc1)C(=O)N[C@@H](CCCCN)C(N)=O [DBG253-13, His-azaCha-Ala-Trp-D-Phe- Lys-NH2] (H-H[X1]AW[dF]K-NH2) | – | – | > 10 | 5.49 | – | –

Further lines, with some results ahead:

Row | IC50 (CD36; [1]) [µM] | IC50 (human GHS-R1a; [2]) [µM] | IC50 (CD36; [3]) [µM] | IC50 (human GHS-R1a; [4]) [µM] | SMILES | binding activity/affinity at CD36 in words (CD36) | other results
10 | 4.94 | > 10 | – | – | CC(C)CN(NC(=O)[C@@H](Cc1c[nH]c2ccccc12)NC(=O)[C@@H](N)Cc1cnc[nH]1)C(=O)N[C@@H](Cc1c[nH]c2ccccc12)C(=O)N[C@H](C)C(=O)N[C@@H](CCCCN)C(N)=O [CP-2B (ii), His-D-Trp-azaLeu-Trp-D-Ala-Lys-NH2] (H-H[dW][azaLeu]W[dA]K-NH2) | retained significant activity similar to the parent peptide | binding activity/affinity at CD36 in words (CD36; listed as CP-2B(ii)): without major change; binding affinity for GHS-R1a receptor in words (human GHS-R1a): decreased drastically
11 | 9.66 | > 10 | – | – | CC(C)CN(NC(=O)[C@@H](Cc1c[nH]c2ccccc12)NC(=O)[C@@H](N)Cc1cnc[nH]1)C(=O)N[C@@H](C)C(=O)N[C@H](Cc1ccccc1)C(=O)N[C@@H](CCCCN)C(N)=O [CP-2B (iii), His-D-Trp-azaLeu-Ala-D-Phe-Lys-NH2] (H-H[dW][azaLeu]A[dF]K-NH2) | retained significant activity similar to the parent peptide | –
12 | – | – | > 10 | 3.74 | C[C@H](NC(=O)[C@@H](Cc1c[nH]c2ccccc12)NC(=O)[C@@H](N)Cc1cnc[nH]1)C(=O)NN(CCc1ccccc1)C(=O)N[C@H](Cc1ccccc1)C(=O)N[C@@H](CCCCN)C(N)=O [DBG253-5, His-D-Trp-Ala-azahomoPhe-D-Phe-Lys-NH2] (H-H[dW]A[X2][dF]K-NH2) | – | –
13 | – | – | 13.2 | 0.771 | C[C@H](NC(=O)[C@@H](Cc1c[nH]c2ccccc12)NC(=O)[C@@H](N)Cc1cnc[nH]1)C(=O)N[C@@H](Cc1ccc(O)cc1)C(=O)N[C@H](Cc1ccccc1)C(=O)N[C@@H](CCCCN)C(N)=O [DBG253-7, His-D-Trp-Ala-Tyr-D-Phe-Lys-NH2] (H-H[dW]AY[dF]K-NH2) | – | –
